The source of these data is patent US20260109699A1, “AZOLE DERIVATIVES AS SHP2 INHIBITORS” (IRBM S.P.A., priority 2022, published 2026).

pIC50: −log10 of the molar value.

The target of data set [1] is T1, SHP-2 enzyme (Met1-Leu525), SHP2wt (Homo sapiens, UniProt Q06124).
T1 construct: synthetized by Origene, Met1-Leu525, cat #TP750155; purchased Origene TP750155
T1 sequence (Q06124 1-525): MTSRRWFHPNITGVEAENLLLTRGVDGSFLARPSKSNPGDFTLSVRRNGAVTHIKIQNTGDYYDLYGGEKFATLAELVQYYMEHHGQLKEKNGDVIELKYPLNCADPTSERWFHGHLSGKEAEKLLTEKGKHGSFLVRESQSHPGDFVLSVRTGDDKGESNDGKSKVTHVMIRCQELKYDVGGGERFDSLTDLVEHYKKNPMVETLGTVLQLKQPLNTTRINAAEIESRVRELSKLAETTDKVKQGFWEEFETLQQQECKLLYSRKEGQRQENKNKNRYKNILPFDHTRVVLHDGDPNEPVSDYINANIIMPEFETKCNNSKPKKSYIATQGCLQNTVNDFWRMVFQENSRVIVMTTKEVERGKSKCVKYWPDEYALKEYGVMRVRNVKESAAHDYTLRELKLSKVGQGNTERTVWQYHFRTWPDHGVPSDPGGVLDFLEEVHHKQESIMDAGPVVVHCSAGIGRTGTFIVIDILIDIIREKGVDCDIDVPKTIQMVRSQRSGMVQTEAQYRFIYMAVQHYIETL
Put plainly: SHP2 inhibition enzymatic assay. Type of data set: biochemical. Conditions: 0.5 nM SHP-2 activated by 500 nM IRS1 peptide, 75 μM DiFMUP substrate. The method in brief:
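Human SHP2 (Met1-Leu525, 0.5 nM) activated by 500 nM bis-phosphorylated IRS1 peptide, pre-incubated 30 min with compound, then 75 μM DiFMUP for 30 min at rt in HEPES pH 7.2, NaCl/KCl, EDTA, Tween-20, 5 mM DTT. Reaction quenched with bpV, fluorescence read; IC50 by four-parameter logistic fit.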

In data set [2] the test system is phospho-ERK1/2 (Thr202/Tyr204). Put plainly: Phospho-ERK cellular assay. Type of data set: cell-based. Conditions: Homo sapiens; KYSE-520 cells, 2 h at 37° C, TR-FRET; read-out: pERK IC50. The method, boiled down: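 KYSE-520 cells treated overnight-after-plating with serially diluted compounds for 2 h at 37° C, then lysed. Phospho-ERK1/2 measured by TR-FRET after overnight antibody incubation at rt; inhibition normalized between DMSO (0%) and no-cell (100%) wells, IC50 from four-parameter logistic fit.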
(In general: Time-resolved FRET reads energy transfer from a long-lived donor to a nearby acceptor.)

Data set [3] is described as follows: Determination of brain penetration in SD rats. It is filed as in vivo. Conditions: Sprague-Dawley (SD), rat; male SD rats, IV 0.2 mg/kg, unbound brain to plasma ratio at 8 h; read-out: Kpuu, brain. How it is done:
Total brain levels, expressed as brain/plasma ratio (Kp,brain) were measured by Cbrain@8h/Cplasma@8h in SD rats after IV administration (see Pharmaceutical Research, Vol. 25, No. 8, August 2008 DOI: 10.1007/s11095-007-9502-2; Pharmaceutical Research (2022) 39:1321-1341 https://doi.org/10.1007/s11095-022-03246-6). Unbound fraction of each molecule in biological matrix was determined by in vitro plasma and brain binding assay. Kpuu, brain was calculated by the following equation: […]
In vitro plasma and brain binding assay was carried out on a RED (Rapid Equilibrium Dialysis) device. Unbound fraction (fu) of each molecule in the brain homogenate and plasma were calculated by the ratio of the buffer side response to the brain homogenate/plasma side response. An IV study design was used as the in vivo screening model to identify brain penetration of each molecule. Male naïve SD rats (n=3) were intravenously dosed with each molecule at 0.2 mg/kg in DMSO/Propylene Glycol/Water, 20:60:20 (v/v/v). At 0.083, 0.25, 0.5, 1, 2, 4, and 8 h post-dose plasma samples were collected via tail vein and brain tissue was harvested at the 8 h time point and homogenized in 3× volume of water. All samples were stored at ˜−80° C. prior to LC/MS/MS analysis. At the 8 h time point, the unbound brain to plasma ratios were generated to identify molecules with Kpuu, brain values>0.3 which is indicative of good passive brain penetration.

Data set [4] has as its target T2, recombinant SHP2 protein (AviTag-G4SG4S-SHP2(1-525)) (Homo sapiens, UniProt Q06124).
T2 construct: recombinant SHP2 protein (AviTag-G4SG4S-SHP2(1-525)); purchased VIVA Biotech Ltd (custom production)
T2 sequence (Q06124 1-525): T1 sequence (Q06124 1-525)
Put plainly: Binding kinetic assay by surface plasmon resonance (SPR). Conditions: for Residence time 1/koff SPR: 1/koff from SPR; for koff: Biacore T200, single cycle kinetic, 25° C, 1:1 Langmuir model. As to the method:
A N-term biotinylated recombinant SHP2 protein (AviTag-G4SG4S-SHP2(1-525)) was custom produced by VIVA Biotech Ltd. Binding kinetic rate constants were measured by SPR, using a Biacore T200 instrument. The recombinant SHP2 protein was diluted at […] in HBS-P+ buffer, then captured on a series S streptavidin sensor chip up to 5000 RU. Binding of compounds was assessed by a single cycle kinetic procedure (SCK): compounds were diluted in HBS-EP+ supplemented with 20% DMSO (from 300 to 3.7 nM, 3 fold dilution), injected for 120 s over the ligand, then dissociation rate measured for 3600 s, at […] and 25° C. Sensorgrams were analysed by Biacore T200 evaluation software: binding rate constants (kon, koff) and affinity (KD) were calculated by curve filling according to a 1:1 Langmuir model. Each molecule was tested in triplicate on separate flow channels.
(In general: SPR reads the build-up and loss of mass on a sensor chip optically.)

Consider `N[C@@H]1c2ccnn2CC12CCN(c1cnc(Sc3ccccc3F)cn1)CC2` [Example 21, (S)-1-(5-((2-fluorophenyl)thio)pyrazin-2-yl)-4′H,6′H-spiro[piperidine-4,5′-pyrrolo[1,2-b]pyrazol]-4′-amine], for which the pIC50 in data set [1] was no less than 7.30. Also, in data set [2], the pIC50 was greater than 7.00. The Kp uu at 8 h in data set [3] is greater than 0.3. Also, in data set [4], the “Residence time 1/koff SPR” value came to 11001 s and the koff was determined as 9.09e-05 s⁻¹.
Regarding `N[C@@H]1c2ccnn2CC12CCN(c1cnc(Oc3cccc(Cl)c3Cl)cn1)CC2` [Example 2, (S)-1-(5-(2,3-dichlorophenoxy)pyrazin-2-yl)-4′H,6′H-spiro[piperidine-4,5′-pyrrolo[1,2-b]pyrazol]-4′-amine], the pIC50 in data set [1] is no less than 7.30; in data set [2], 6.30 to 7.00. Also, in data set [3], the Kp uu at 8 h was greater than 0.3. In addition, the “Residence time 1/koff SPR” value in data set [4] worked out at 1944 s. Besides, the koff in data set [4] was found to be 0.000514 s⁻¹.
`N[C@@H]1c2ccnn2CC12CCN(c1cnc(Sc3cccc(-n4cccn4)c3Cl)cn1)CC2` [Example 10, (S)-1-(5-((2-chloro-3-(1H-pyrazol-1-yl)phenyl)thio)pyrazin-2-yl)-4′H,6′H-spiro[piperidine-4,5′-pyrrolo[1,2-b]pyrazol]-4′-amine]: in data set [1], the pIC50 was no less than 7.30. The pIC50 in data set [2] is greater than 7.00. For the same compound, the Kp uu at 8 h in data set [3] was greater than 0.3. Besides, in data set [4], the “Residence time 1/koff SPR” value is given as 90909 s and the off-rate (koff) is 1.1e-05 s⁻¹.
With `Cc1c(N2CCC3(CC2)Cn2nccc2[C@H]3N)nc(C)n(-c2cccc(Cl)c2Cl)c1=O` (single isomer, unassigned) [Example 3], the pIC50 in data set [1] is no less than 7.30. Also, the pIC50 in data set [2] was greater than 7.00. Moreover, the Kp uu at 8 h in data set [3] was greater than 0.3. Also, in data set [4], the “Residence time 1/koff SPR” value is recorded as 8065 s and the koff was 0.000124 s⁻¹.
Regarding `Cc1c(F)ccc(Sc2cnc(N3CCC4(CC3)Cn3nccc3[C@H]4N)cn2)c1F` [Example 45, (S)-1-(5-((2,4-difluoro-3-methylphenyl)thio)pyrazin-2-yl)-4′H,6′H-spiro[piperidine-4,5′-pyrrolo[1,2-b]pyrazol]-4′-amine], the pIC50 was no less than 7.30 in data set [1] and greater than 7.00 in data set [2]. Also, the “Residence time 1/koff SPR” value in data set [4] came to 12664 s. Also, the koff in data set [4] was 7.9e-05 s⁻¹.
Turning to `N[C@@H]1c2ccnn2CC12CCN(c1cnc(Sc3ccnc4ccccc34)cn1)CC2` [Example 39, (S)-1-(5-(quinolin-4-ylthio)pyrazin-2-yl)-4′H,6′H-spiro[piperidine-4,5′-pyrrolo[1,2-b]pyrazol]-4′-amine], the pIC50 in data set [1] was no less than 7.30. Moreover, the negative-log IC50 (pIC50) in data set [2] is greater than 7.00. Also, the Kp uu at 8 h in data set [3] was greater than 0.3. For the same compound, in data set [4], the “Residence time 1/koff SPR” value came to 5474 s and the koff is 0.000183 s⁻¹.
Take `Cc1c(Cl)cncc1Sc1cnc(N2CCC3(CC2)Cn2nccc2[C@H]3N)cn1` [Example 62, (S)-1-(5-((5-chloro-4-methylpyridin-3-yl)thio)pyrazin-2-yl)-4′H,6′H-spiro[piperidine-4,5′-pyrrolo[1,2-b]pyrazol]-4′-amine]: the results for the pIC50 in data set [1] and in data set [2] were no less than 7.30 and 6.30 to 7.00, respectively.
For `N[C@@H]1c2ccnn2CC12CCN(c1cnc(Sc3ccc(F)c(F)c3F)cn1)CC2` [Example 49, (S)-1-(5-((2,3,4-trifluorophenyl)thio)pyrazin-2-yl)-4′H,6′H-spiro[piperidine-4,5′-pyrrolo[1,2-b]pyrazol]-4′-amine], the pIC50 in data set [1] was no less than 7.30; in data set [2], greater than 7.00.
As for `N[C@@H]1c2ccnn2CC12CCN(c1cnc(Sc3cccc(F)c3Cl)cn1)CC2` [Example 30, (S)-1-(5-((2-chloro-3-fluorophenyl)thio)pyrazin-2-yl)-4′H,6′H-spiro[piperidine-4,5′-pyrrolo[1,2-b]pyrazol]-4′-amine], the pIC50 in data set [1] was no less than 7.30; in data set [2], greater than 7.00.
Consider `Cc1c(Cl)cccc1Sc1cnc(N2CCC3(CC2)Cn2nccc2[C@H]3N)cn1` [Example 33, (S)-1-(5-((3-chloro-2-methylphenyl)thio)pyrazin-2-yl)-4′H,6′H-spiro[piperidine-4,5′-pyrrolo[1,2-b]pyrazol]-4′-amine], for which the pIC50 in data set [1] was no less than 7.30; in data set [2], greater than 7.00.

For orientation: pIC50 means the negative decadic logarithm of the IC50, by convention in mol/L. The term koff denotes the rate constant with which the complex falls apart.
